Assay results reported in patent publication US6380248B1, “Metal-thiols as immunomodulating agents” (Winthrop University Hospital, priority 1998, dated 2002).
Where two headings read alike, the source gives them in different places.

How the values were obtained:
bacteria = experiment: Antibacterial activity of bismuth-thiols; format: cell-based; details: for antibacterial / antimicrobial activity in words: comparison between bismuth-thiols
[1] = system: CLP mice (sepsis induced by cecal ligation and perforation); experiment: Survival of septic mice (cecal ligation and perforation, CLP) treated with BisEDT; format: in vivo
Protocol: In the absence of any treatment, mortality rate is greater than 90% within 18-72 hours.
The object was to determine if Bismuth-ethanedithiol (BisEDT) in a molar ratio of 1:2, would protect CLP mice. Mortality rate of greater than 90% is observed within 18-72 hours in this model. A dose response study was performed to determine an optimal dose of BisEDT. […] Data were analyzed using Chi-Square and Krumkal Walkis tests. The data are presented below as average ±SEM. Data compared to control (dose 0) were considered significant (*) at p<0.05.

[2] = system: macrophages/monocytes from CLP mice; format: in vivo
IL-1α = experiment: Serum cytokine levels in CLP mice treated with BisEDT; format: in vivo; details: BisEDT 1:2 (Bismuth 20 μg/kg BW) tail vein 5 h after CLP, sacrificed 18 h after injection
TNFα = experiment: as above; format: in vivo; details: BisEDT 1:2 (Bismuth 20 μg/kg BW) tail vein 5 h after CLP, sacrificed 18 h after injection, * p<0.05
IL-10 [3] = experiment: as above; format: in vivo; details: BisEDT 1:2 (Bismuth 20 μg/kg BW) tail vein 5 h after CLP, sacrificed 18 h after injection
TGFβ1 = experiment: as above; format: in vivo; details: BisEDT 1:2 (Bismuth 20 μg/kg BW) tail vein 5 h after CLP, sacrificed 18 h after injection
IL-10 [4] = format: in vivo, mice
[5] = system: pro- and anti-inflammatory cytokines; experiment: Polymicrobial sepsis induced up-regulation of cytokines in mice; details: mouse, in vivo
mice [6] = experiment: Toxicity / lethality to mice; details: mouse, in vivo
[7] = Stability of the bismuth-thiol compound; format: physicochemical; details: compared to bismuth:dimercaprol
mice [8] = details: according to MSDS sheets from Aldrich Chemical Company; cited from earlier work
[9] = repeat study, Injection Once a Day, dose 2 ug/kg BW, * p<0.05
[10] = repeat study, Injection Once a Day, dose 200 ug/kg BW
[11] = repeat study, Injection Twice a Day, dose 2 ug/kg BW, * p<0.05
[12] = repeat study, Injection Twice a Day, dose 200 ug/kg BW

Question: For `CC(O)C(C)S` (centres unmarked) [3-mercapto-2-butanol], which “amount of thiol required relative to dimercaprol to achieve similar inhibitory activity” value (bacteria; in combination with bismuth) is on record?
Answer: Approximately 3 times

Question: For `SCCCCS.[Bi]` [Bismuth-1,4-butanedithiol], which “less antibacterial activity (compared with vicinal dithiols Bismuth-2,3-BDT / bismuth:ethanedithiol)” value (bacteria) is on record?
Answer: ~100 fold

Question: For `O=S(=O)(O)CC(S)CS` (centres unmarked) [dimercaptopropane-1-sulfonic acid, reference compound], which “antibacterial synergy of the thiol with bismuth” value (from here on “antibacterial synergy”) (bacteria) is on record?
Answer: did not show antibacterial synergy

Question: Which “antibacterial / antimicrobial activity in words” value (bacteria) does the source give for Bismuth-2,3-BDT (2,3-butanedithiol) here?
Answer: as good as bismuth:ethanedithiol

Question: What does the source list for Bismuth-ethanedithiol [BisEDT]?
Answer: Survival ([1]; dose 2 ug/kg BW via tail vein once a day for three days, observed 8 days, average ±SEM, dose response study): 64 ± 43 h; Survival (%) ([1]; dose 2 ug/kg BW via tail vein once a day for three days, observed 8 days, dose response study): 20%; Survival (hrs.) ([1]; dose 20 ug/kg BW via tail vein once a day for three days, average ±SEM, dose response study, * p<0.05 vs dose 0): 110 ± 35* hrs.; Survival (%) ([1]; dose 20 ug/kg BW via tail vein once a day for three days, dose response study, * p<0.05 vs dose 0): 60* %; Survival ([1]; dose 200 ug/kg BW via tail vein once a day for three days, average ±SEM, dose response study): 75 ± 21 h; Survival (%) ([1]; dose 200 ug/kg BW via tail vein once a day for three days, dose response study): 40%; Survival ([1]; dose 2000 ug/kg BW via tail vein once a day for three days, average ±SEM, dose response study): 48 ± 24 h; Survival (%) ([1]; dose 2000 ug/kg BW via tail vein once a day for three days, dose response study): 20%; effect on survival ([1]; dose of 20 μg/kg body weight): significantly increase survival; effect of increase in dose frequency on survival ([1]; once daily to twice daily, P=0.73): did not increase survival; Survival (%) [1, 9]: 56* %; Survival (hrs.) [1, 9]: 109 ± 29* hrs.; Survival [1, 10]: 75 ± 21 h; Survival (%) [1, 10]: 40%; Survival (%) [1, 11]: 44* %; Survival (hrs.) [1, 11]: 103 ± 29* hrs.; Survival [1, 12]: 97 ± 40 h; Survival (%) [1, 12]: 40%; percentage survival, overall ([1]; treatment group versus 0% (control), summary of Example 1): 60%; survivability, overall ([1]; with treatment versus approximately 36 hours without treatment, summary of Example 1): 108 h; amounts of superoxide, H2O2 and NO2- produced by macrophages/monocytes, unstimulated ([2]; from BisEDT-treated CLP mice (Bismuth 20 μg/kg BW), without in vitro stimulation): in between that produced by the control and untreated CLP mice but not significantly different from either of these groups; release of superoxide, H2O2 and NO2- by macrophages/monocytes, stimulated ([2]; mouse, in vivo): significantly increased; Serum IL-1α level (IL-1α): 10.5 ± 1.1 pg/mL; Serum TNFα level (TNFα): 13.7 ± 2.9* pg/ml; Serum IL-10 level (IL-10 [3]): 165 ± 69 pg/mL; Serum TGFβ1 level (TGFβ1): 24.8 ± 3.6 pg/mL; IL-10 production in vitro by splenic macrophages (IL-10 [4]; from CLP mice treated with BisEDT, unstimulated): do not produce IL-10 in vitro as much as the macrophages from BisEDT untreated CLP animals; IL-10 release by splenic macrophages, stimulated (IL-10 [4]; mouse, in vivo): did not significantly up-regulate the IL-10 release; prevention of sepsis induced up-regulation of pro- and anti-inflammatory cytokines [5]: able to prevent the polymicrobial sepsis induced up-regulation of both pro- and anti-inflammatory cytokines; antibacterial / antimicrobial activity in words (bacteria): stronger antimicrobial agent than bismuth:dimercaprol; toxicity compared to bismuth:dimercaprol (mice [6]): no more toxic; stability [7]: more stable compound at all molar ratios and pHs; lethality to mice (mice [8]): very similar to that of dimercaprol

Question: With “Bismuth:propanedithiol (1,3-propanedithiol)” as the compound, how does the “antibacterial / antimicrobial activity in words” value (bacteria) read?
Answer: works quite well, but not as well as the vicinal dithiols

Question: With bismuth:2-mercaptoethylamine as the compound, how does the “decrease in activity compared with bismuth:β-mercaptoethanol” value (bacteria; antibacterial activity) read?
Answer: 5 fold

Question: Which “antibacterial synergy” value (bacteria) does the source give for “dimercapto-succinic acid [reference compound]” here?
Answer: largely abolished synergy with bismuth

Question: What about the “antibacterial synergy” value (bacteria; listed as DMSA) of the same compound?
Answer: did not show antibacterial synergy
